Data published in paper PMC10511043 (Cell Structure and Function, 2020).

Target: LCMV Z protein (Zabton-3 / Zabton FRET biosensor, trimeric tandem Z) (Lymphocytic choriomeningitis virus (strain Armstrong), UniProt P18541)
Sequence (P18541 whole entry, looked up): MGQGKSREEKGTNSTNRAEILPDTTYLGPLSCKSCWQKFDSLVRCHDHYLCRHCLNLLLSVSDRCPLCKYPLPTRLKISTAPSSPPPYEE

SMILES: Nc1nc(N)c2c3c(sc2n1)CN(Cc1ccccc1)CC3 [#4, 5,6,7,8-tetrahydro-7-(benzyl)-pyrido[4',3':4,5]thieno[2,3-d]pyrimidin-2,4-diamine]
- decrease of FRET/CFP emission ratio: both of them decreased the FRET ratio in a concentration-dependent manner
